Results filed as inconclusive are left out. Calls of active or inactive are those of the source.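 The calls were made as follows: active = fitted curve drops past -35% activity change at a concentration under twice the top valid tested dose; inconclusive = no clear call, values can overlap the other calls; inactive = the rest, including effects in the wrong direction.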
Tested on: 26S proteasome chymotrypsin-like activity (human)
Experiment: cellular 26S proteasome inhibition check – cell-based, U2OS, Proteasome-Glo luminescence, dry powder, set 2, mechanism study for HSF1 activator project, dose response (AID 624445)
Conditions: for activity change, negative = inhibition: at 38 µM (top of the series)

| Compound | activity change, negative = inhibition | AC35 [µM] |
| --- | --- | --- |
| Cc1ccccc1CSc1nsc(N)n1 | -21.8% (inactive) |  |
| O=C(Nc1nc(SCc2ccccc2)ns1)C1CCC1 |  | 30.4 |
| Cc1ccccc1CSc1nnc(N)s1 | -25.3% (inactive) |  |
| O=C(Nc1nc(SCc2ccccc2)ns1)C1CC=CCC1 (stereo unspecified) | -30.5% (inactive) |  |
| Nc1nc(SCc2ccccc2)ns1 |  | 37.2 |
| Nc1nc(SCc2ccc(F)cc2)ns1 | -32.9% (inactive) |  |
| Nc1nc(SCc2ccccc2Cl)ns1 | -20.5% (inactive) |  |
| Nc1nc(S(=O)(=O)Cc2ccccc2)ns1 | -17.1% (inactive) |  |
| Cc1cccc(CSc2nsc(N)n2)c1 |  | 35.2 |
| Cc1ccccc1CSc1n[nH]c(N)n1 | 9.01% (inactive) |  |
| Nc1nc(SCc2ccc(Cl)cc2Cl)ns1 | 2.27% (inactive) |  |

— PubChem BioAssay AID624445 (Broad Institute, 2012)
